Source: patent US20140298493A1, “PIK3CA H1047R Knock-In Non-Human Animal Breast Cancer Model” (priority 2011, published 2014)
“Also recorded” adds a separate entry of the source.

Experiments:
[1] = test system: pAKT and pS6 (PI3K pathway) in PIK3CA^e20H1047R mammary tumor explants; assay: Western blot of tumors from GDC-0941 treated mice (PI3K pathway inhibition); assay type: in vivo, C.B-17 SCID beige mice; conditions: at least up to 10 hours following treatment
Protocol: Frozen tumors were weighed and lysed with a pestle PP (Scienceware, NJ) in cell extract buffer (Invitrogen, CA) supplemented with protease inhibitors (F. Hoffman-La Roche, Ltd., Germany), 1 mM phenylmethysulfonyl fluoride, and phosphatase inhibitor cocktails 1 and 2 (Sigma, Mo.). Protein concentrations were determined using the Pierce BCA Protein Assay Kit (Rockford, Ill.). For Western blots equal amounts of protein were separated by electrophoresis through NuPage Bis-Tris 4-12% gradient gels (Invitrogen, CA), proteins were transferred onto nitrocellulose pore membranes using the iBlot system (Invitrogen, CA). Primary antibodies used for blotting include pAkt (Ser473), pAkt (Thr308), total Akt, pS6 (Ser235/236), pS6 (Ser240/242) and total S6 antibodies were obtained from Cell Signaling Technology (Danvers, Mass.), and anti-actin antibody was purchased from Sigma-Aldrich (St. Louis, Mo.). Chemiluminescence western blotting detection (Amersham Biosciences, PA) coupled with appropriate secondary horseradish peroxidase-conjugated secondary IgG antibodies was employed, to detect the primary antibody bound proteins.

[2] = test system: PIK3CA^e20H1047R mammary tumor explants (spindle cell tumor with TP53 mutations) grown as xenografts; assay: Drug efficacy study: mammary tumor explants implanted subcutaneously near mammary fat pad, tumor growth inhibition and time to progression; assay type: in vivo, C.B-17 SCID beige mice
Protocol: Tumor sizes and mouse body weights were recorded twice weekly over the course of the study. […] The 2.5 and 97.5 percentiles of the simulated distribution were used as the […] UIs.

SMILES: CS(=O)(=O)N1CCN(Cc2cc3nc(-c4cccc5[nH]ncc45)nc(N4CCOCC4)c3s2)CC1 [GDC-0941]
- pAKT and pS6 in tumor from treated mice [1]: significant decrease in pAKT and pS6; also recorded: evidence of PI3K pathway inhibition
- tumor growth inhibition (TGI) ([2]; 150 mg/kg, daily oral gavage for 13 days, % TGI relative to vehicle (AUC based), highest TGI): 85%
- response of tumor explants grown as xenografts to treatment ([2]; FIG. 5a legend): respond to treatment
- time to progression, log-rank test versus vehicle control ([2]; all doses tested (50, 100, 150 mg/kg), p<0.0001 at 150 mg/kg): statistically significant difference
- tumor growth inhibition compared to vehicle treatment ([2]; other doses tested (50 and 100 mg/kg), daily oral gavage for 13 days): tumor growth inhibition was also observed
